The source made the active and inactive calls. The rule behind the calls is not given here.
Assays:
[1] = molecular target: Serine/threonine-protein kinase 24 (Homo sapiens) (UniProt Q9Y6E0); experiment: Inhibition of recombinant human MST3 (1 to 304 residues) at 10 uM using ERMRPRKRQGSVRRRV as substrate measured after 40 mins in presence of [gamma33P]ATP by scintillation counting method relative to control
[2] = molecular target: Protein kinase C alpha type (Homo sapiens) (UniProt P17252); experiment: Inhibition of full-length recombinant human PKCalpha at 10 uM using histone H1 as substrate after 40 mins by in presence of [gamma33P]ATP by scintillation counting method relative to control
[3] = molecular target: Cytoplasmic tyrosine-protein kinase BMX (Homo sapiens) (UniProt P51813); experiment: Inhibition of full-length recombinant human BMX at 10 uM using poly(Glu, Tyr) 4:1 as substrate measured after 40 mins in presence of [gamma33P]ATP by scintillation counting method relative to control
[4] = molecular target: Fatty acid-binding protein, heart (Homo sapiens) (UniProt P05413); experiment: Binding affinity to FABP3 (unknown origin) at 1:1 ratio by fluorescence based thermal shift assay
[5] = molecular target: Cyclin-dependent kinase-like 4 (Homo sapiens) (UniProt Q5MAI5); experiment: Inhibition of human CDKL4 at 10 uM by radiometric method relative to control
[6] = molecular target: Serine-protein kinase ATM (Homo sapiens) (UniProt Q13315); experiment: Inhibition of recombinant full-length human ATM at 10 uM using GST-cMyc-p53 as substrate measured after 40 mins by ELISA method relative to control
[7] = molecular target: Epidermal growth factor receptor (Homo sapiens) (UniProt P00533); experiment: Inhibition of recombinant human EGFR (696 to end residues) at 10 uM using poly(Glu, Tyr) as substrate measured after 40 mins in presence of [gamma33P]ATP by scintillation counting method relative to control
[8] = molecular target: CDK6/cyclin D3 (Homo sapiens) (UniProt P30281+Q00534); experiment: Inhibition of recombinant full-length human CDK6/cyclinD3 at 10 uM using histone H1 as substrate measured after 40 mins in presence of [gamma33P]ATP by scintillation counting method relative to control; assay type: protein-complex assay
[9] = molecular target: Tyrosine-protein kinase CSK (Homo sapiens) (UniProt P41240); experiment: Inhibition of recombinant full length human CSK at 10 uM using poly(Glu,Tyr) as substrate measured after 40 mins in presence of [gamma33P]ATP by scintillation counting method relative to control
[10] = molecular target: Tyrosine-protein kinase ABL1 (Homo sapiens) (UniProt P00519); experiment: Inhibition of human Abl (27 to end residues) at 10 uM using EAIYAAPFAKKK as substrate after 40 mins in presence of [gamma33P]ATP by scintillation counting method relative to control
[11] = molecular target: Myosin light chain kinase, smooth muscle (Homo sapiens) (UniProt Q15746); experiment: Inhibition of recombinant human MLCK (1425 to 1771 residues) at 10 uM using […] as substrate measured after 40 mins in presence of [gamma33P]ATP by scintillation counting method relative to control
[12] = test system: TGF-beta receptor type-1 (Homo sapiens), P36897 [T204D]; experiment: Inhibition of recombinant human TGFBR1 T204D mutant (200 to end residues) at 10 uM using casein as substrate measured after 40 mins in presence of [gamm33P]ATP by scintillation counting method relative to control
[13] = molecular target: Transcriptional enhancer factor TEF-3 (Homo sapiens, UniProt Q15561); experiment: Inhibition of N-terminal His6 tagged human TEAD4-YBD (217 to 434 residues) expressed in Escherichia coli C43 (DE3) cells assessed as reduction in autopalmitoylation at 800 nM preincubated for 2 hrs followed by palmitoyl alkyne-coenzyme A addition and measured after 30 mins by immunoblot analysis relative to control
[14] = organism: Homo sapiens; experiment: Inhibition of TEAD (unknown origin) expresssed in HEK293T cells assessed as reduction in luciferase activity at 10 to 20 uM by dual-luciferase reporter gene assay; assay type: cell-based
[15] = molecular target: Interferon-induced, double-stranded RNA-activated protein kinase (Homo sapiens) (UniProt P19525); experiment: Inhibition of recombinant human PKR (252 to end residues) at 10 uM using RSRSRSRSRSRSRSR as substrate measured after 40 mins in presence of [gamma33P]ATP by scintillation counting method relative to control
[16] = molecular target: NUAK family SNF1-like kinase 1 (Homo sapiens) (UniProt O60285); experiment: Inhibition of recombinant human ARK5 (2 to end residues) at 10 uM using KKKVSRSGLYRSPSMPENLNRPR as substrate measured after 40 mins in presence of [gamma33P]ATP by scintillation counting method relative to control
[17] = molecular target: Mitogen-activated protein kinase kinase kinase 9 (Homo sapiens) (UniProt P80192); experiment: Inhibition of recombinant human MLK1 (134 to 414 residues) at 10 uM using casein as substrate measured after 40 mins in presence of [gamma33P]ATP by scintillation counting method relative to control
[18] = molecular target: Tyrosine-protein kinase ABL2 (Homo sapiens) (UniProt P42684); experiment: Inhibition of recombinant human ARG (38 to end residues) at 10 uM using EAIYAAPFAKKK as substrate measured after 40 mins in presence of [gamma33P]ATP by scintillation counting method relative to control
[19] = test system: RAF proto-oncogene serine/threonine-protein kinase (Homo sapiens), P04049 [Y340D,Y341D]; experiment: Inhibition of recombinant human c-RAF Y340D/Y341D mutant (360 to end residues) at 10 uM using inactive MEK1 as substrate measured after 40 mins in presence of [gamma33P]ATP by scintillation counting method relative to control
[20] = test system: Ribosomal protein S6 kinase beta-1 (Homo sapiens), P23443 [T412E]; experiment: Inhibition of recombinant human p70S6K T412E mutant (1 to 421 residues) at 10 uM using KKRNRTLTV as substrate measured after 40 mins in presence of [gamma33P]ATP by scintillation counting method relative to control
[21] = molecular target: Rhodopsin kinase GRK1 (Homo sapiens) (UniProt Q15835); experiment: Inhibition of full length recombinant human GRK1 at 10 uM using KKKKERLLDDRHDSGLDSMKDEE as substrate after 40 mins in presence of [gamma33P]ATP by scintillation counting method relative to control
[22] = molecular target: Protein kinase C iota type (Homo sapiens) (UniProt P41743); experiment: Inhibition of full-length recombinant human PKCiota at 10 uM using ERMRPRKRQGSVRRRV as substrate after 40 mins by in presence of [gamma33P]ATP by scintillation counting method relative to control
[23] = molecular target: Serine/threonine-protein kinase/endoribonuclease IRE1 (Homo sapiens) (UniProt O75460); experiment: Inhibition of recombinant human IRE1 (465 to end residues) at 10 uM using myelin basic protein as substrate measured after 40 mins in presence of [gamma33P]ATP by scintillation counting method relative to control
[24] = molecular target: DNA (cytosine-5)-methyltransferase 1 (Homo sapiens) (UniProt P26358); experiment: Inhibition of human DNMT1 at 10 uM after 1 hr by radioisotope-based assay relative to control

Cyclin-dependent kinase-like 4 (Homo sapiens), sequence (Q5MAI5 whole entry): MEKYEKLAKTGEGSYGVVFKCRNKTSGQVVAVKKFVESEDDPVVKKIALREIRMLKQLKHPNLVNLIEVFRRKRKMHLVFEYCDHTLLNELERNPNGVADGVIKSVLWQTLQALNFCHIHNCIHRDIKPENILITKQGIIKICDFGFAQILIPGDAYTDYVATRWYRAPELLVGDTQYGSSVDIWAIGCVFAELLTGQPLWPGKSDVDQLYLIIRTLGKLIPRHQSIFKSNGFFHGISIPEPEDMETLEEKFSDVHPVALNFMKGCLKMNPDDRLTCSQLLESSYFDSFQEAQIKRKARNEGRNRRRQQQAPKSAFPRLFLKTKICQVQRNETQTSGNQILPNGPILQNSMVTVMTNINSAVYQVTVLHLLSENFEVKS
Fatty acid-binding protein, heart (Homo sapiens), sequence (P05413 2-133 limits assumed): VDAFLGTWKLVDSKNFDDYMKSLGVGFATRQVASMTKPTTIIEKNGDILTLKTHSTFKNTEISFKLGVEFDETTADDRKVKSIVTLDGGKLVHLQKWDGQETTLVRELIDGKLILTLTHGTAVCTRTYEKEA
Cytoplasmic tyrosine-protein kinase BMX (Homo sapiens), sequence (P51813 whole entry): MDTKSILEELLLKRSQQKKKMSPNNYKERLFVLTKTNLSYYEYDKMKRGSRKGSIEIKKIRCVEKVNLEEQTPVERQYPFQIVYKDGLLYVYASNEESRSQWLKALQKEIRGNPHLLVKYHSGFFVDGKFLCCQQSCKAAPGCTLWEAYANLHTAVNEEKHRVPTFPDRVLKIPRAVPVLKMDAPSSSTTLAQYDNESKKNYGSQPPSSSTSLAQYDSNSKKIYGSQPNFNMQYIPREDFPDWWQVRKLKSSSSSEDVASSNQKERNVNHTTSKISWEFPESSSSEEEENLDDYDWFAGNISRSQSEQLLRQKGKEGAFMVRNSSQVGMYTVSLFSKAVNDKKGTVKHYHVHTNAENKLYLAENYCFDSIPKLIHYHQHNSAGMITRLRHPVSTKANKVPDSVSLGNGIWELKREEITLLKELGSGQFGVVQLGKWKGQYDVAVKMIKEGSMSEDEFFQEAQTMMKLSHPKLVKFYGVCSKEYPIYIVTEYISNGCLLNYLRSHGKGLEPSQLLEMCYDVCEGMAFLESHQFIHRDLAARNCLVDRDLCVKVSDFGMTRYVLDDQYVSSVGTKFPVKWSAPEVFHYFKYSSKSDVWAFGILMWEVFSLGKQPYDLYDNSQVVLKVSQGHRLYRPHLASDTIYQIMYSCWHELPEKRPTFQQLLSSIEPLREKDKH
Transcriptional enhancer factor TEF-3, sequence (Q15561 whole entry, the tested form may be a part): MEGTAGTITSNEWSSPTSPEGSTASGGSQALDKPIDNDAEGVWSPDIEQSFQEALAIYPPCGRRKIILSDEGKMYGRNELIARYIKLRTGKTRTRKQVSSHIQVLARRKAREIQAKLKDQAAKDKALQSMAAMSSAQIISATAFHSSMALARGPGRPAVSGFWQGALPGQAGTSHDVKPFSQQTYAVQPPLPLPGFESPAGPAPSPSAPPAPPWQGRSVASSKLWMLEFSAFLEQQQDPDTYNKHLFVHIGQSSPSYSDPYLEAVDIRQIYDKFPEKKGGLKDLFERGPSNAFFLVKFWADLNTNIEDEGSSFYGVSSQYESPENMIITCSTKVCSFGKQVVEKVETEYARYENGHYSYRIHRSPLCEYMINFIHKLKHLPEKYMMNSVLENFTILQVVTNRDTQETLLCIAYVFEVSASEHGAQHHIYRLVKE
Mitogen-activated protein kinase kinase kinase 9 (Homo sapiens), sequence (P80192 whole entry, looked up, the tested form may be a part): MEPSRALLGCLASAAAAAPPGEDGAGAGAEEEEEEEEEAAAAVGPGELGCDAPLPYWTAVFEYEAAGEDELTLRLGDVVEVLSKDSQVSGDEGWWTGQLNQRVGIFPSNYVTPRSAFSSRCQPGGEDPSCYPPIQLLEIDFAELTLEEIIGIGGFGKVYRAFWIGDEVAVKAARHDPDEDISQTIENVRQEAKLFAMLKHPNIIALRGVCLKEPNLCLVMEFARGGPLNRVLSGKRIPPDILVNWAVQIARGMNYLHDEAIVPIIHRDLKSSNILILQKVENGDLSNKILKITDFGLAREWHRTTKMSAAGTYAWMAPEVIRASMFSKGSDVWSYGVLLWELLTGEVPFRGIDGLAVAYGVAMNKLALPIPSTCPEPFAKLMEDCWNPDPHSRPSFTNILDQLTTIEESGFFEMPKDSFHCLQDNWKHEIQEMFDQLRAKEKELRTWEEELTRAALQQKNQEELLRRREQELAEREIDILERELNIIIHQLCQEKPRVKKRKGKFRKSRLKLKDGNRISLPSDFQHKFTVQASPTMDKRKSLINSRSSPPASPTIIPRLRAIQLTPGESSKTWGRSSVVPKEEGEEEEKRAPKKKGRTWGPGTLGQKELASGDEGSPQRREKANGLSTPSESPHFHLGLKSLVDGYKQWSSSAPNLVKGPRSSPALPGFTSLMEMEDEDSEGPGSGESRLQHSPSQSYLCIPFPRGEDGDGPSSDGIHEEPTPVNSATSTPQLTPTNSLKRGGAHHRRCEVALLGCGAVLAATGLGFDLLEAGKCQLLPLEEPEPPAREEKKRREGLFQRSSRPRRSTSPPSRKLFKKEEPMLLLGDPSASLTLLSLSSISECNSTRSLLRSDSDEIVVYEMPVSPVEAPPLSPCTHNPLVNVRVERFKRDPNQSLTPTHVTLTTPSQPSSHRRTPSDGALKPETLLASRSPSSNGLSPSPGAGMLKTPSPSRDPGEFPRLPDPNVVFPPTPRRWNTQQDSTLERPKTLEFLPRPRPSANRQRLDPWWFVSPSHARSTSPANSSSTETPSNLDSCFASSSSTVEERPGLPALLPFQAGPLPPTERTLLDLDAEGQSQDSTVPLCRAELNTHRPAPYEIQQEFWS
Interferon-induced, double-stranded RNA-activated protein kinase (Homo sapiens), sequence (P19525 whole entry): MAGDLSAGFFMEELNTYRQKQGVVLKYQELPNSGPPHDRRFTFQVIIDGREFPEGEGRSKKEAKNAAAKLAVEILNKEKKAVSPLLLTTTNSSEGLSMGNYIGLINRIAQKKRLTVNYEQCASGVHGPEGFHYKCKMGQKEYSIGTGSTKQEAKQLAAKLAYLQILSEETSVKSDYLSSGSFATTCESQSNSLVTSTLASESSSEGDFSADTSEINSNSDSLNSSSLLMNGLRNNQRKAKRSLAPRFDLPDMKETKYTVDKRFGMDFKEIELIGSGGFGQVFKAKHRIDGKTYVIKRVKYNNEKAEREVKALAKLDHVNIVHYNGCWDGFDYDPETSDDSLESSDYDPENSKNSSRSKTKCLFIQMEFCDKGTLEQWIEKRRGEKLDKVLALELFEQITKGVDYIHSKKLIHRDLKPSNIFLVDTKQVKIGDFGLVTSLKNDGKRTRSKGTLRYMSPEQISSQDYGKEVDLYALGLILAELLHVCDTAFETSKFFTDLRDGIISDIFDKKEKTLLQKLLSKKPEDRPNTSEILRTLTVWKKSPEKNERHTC
RAF proto-oncogene serine/threonine-protein kinase (Homo sapiens), P04049 [Y340D,Y341D], sequence (P04049 whole entry Y340D/Y341D, the tested form may be a part): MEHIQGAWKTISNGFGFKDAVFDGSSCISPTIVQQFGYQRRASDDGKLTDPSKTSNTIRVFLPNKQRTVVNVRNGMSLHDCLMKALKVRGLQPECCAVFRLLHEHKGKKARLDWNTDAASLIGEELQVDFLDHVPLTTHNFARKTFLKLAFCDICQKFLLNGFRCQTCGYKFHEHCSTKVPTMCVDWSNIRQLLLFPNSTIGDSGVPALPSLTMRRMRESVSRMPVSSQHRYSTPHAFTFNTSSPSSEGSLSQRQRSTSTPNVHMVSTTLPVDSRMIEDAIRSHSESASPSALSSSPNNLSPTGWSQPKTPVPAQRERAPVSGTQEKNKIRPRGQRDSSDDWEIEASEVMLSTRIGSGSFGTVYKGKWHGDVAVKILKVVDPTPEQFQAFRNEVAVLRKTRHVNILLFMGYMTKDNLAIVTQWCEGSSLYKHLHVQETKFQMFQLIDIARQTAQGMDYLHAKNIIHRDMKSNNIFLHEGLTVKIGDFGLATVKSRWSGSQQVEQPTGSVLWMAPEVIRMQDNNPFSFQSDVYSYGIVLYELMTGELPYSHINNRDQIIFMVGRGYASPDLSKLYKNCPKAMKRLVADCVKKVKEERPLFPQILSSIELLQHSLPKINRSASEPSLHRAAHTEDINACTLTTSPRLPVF

C=CS(=O)(=O)Nc1ccc(Cc2ccc3ccccc3c2)cc1
inhibition [1]: 3% | inhibition [2]: 3% | inhibition [3]: 19% | Activity [4]: Active | inhibition [5]: -6% | inhibition [6]: 2% | inhibition [7]: 13% | inhibition [8]: -1% | inhibition [9]: -1% | inhibition [10]: 7% | inhibition [11]: 5% | inhibition [12]: -2% | inhibition [13]: 91.6% | inhibition [14]: Active | inhibition [15]: -8% | inhibition [16]: 10% | inhibition [17]: 8% | inhibition [18]: 16% | inhibition [19]: -8% | inhibition [20]: 9% | inhibition [21]: 7% | inhibition [22]: 5% | inhibition [23]: -4% | inhibition [24]: 15%

From ChEMBL document CHEMBL4376829, “Discovery and biological evaluation of vinylsulfonamide derivatives as highly potent, covalent TEAD autopalmitoylation inhibitors” (Eur J Med Chem, 2019)
